Source: PMC2248166, “Quantitative peptide binding motifs for 19 human and mouse MHC class I molecules derived using positional scanning combinatorial peptide libraries” (Immunome Research, 2008)

What was measured:
Assay type in all cases: binding
[1] = biological target: HLA A*3201 (Homo sapiens, UniProt P04439, A270S/D101S/D185E/E176V/E277Q/F133L/G103R/G107R/G231S/H175R/I121M/I218V/I322F/K168Q/L105A/L300P/L318F/M331R/P208A/P217A/Q94H/R106L/R138Q/S129P/T104I/T323A/T345S/V100E/V321M/V358M); experiment: biochemical
[2] = biological target: H-2 D^b (Mus musculus, UniProt P01899)
[3] = biological target: HLA B*0801 (Homo sapiens, UniProt P01889, A93T/A95T/D138N/E176V/E187T/K202T/Q94N/R180D/S35A/V36M/Y33D/Y91F); experiment: biochemical
[4] = biological target: HLA B*1501 (Homo sapiens, UniProt P01889, A329T/A93T/A95T/C349S/D201E/D98Y/E187L/E204Q/E69M/E70A/K202T/N87E/Q94N/R155S/R180W/S121R/S35A/S48A/V306I/V36M/Y140S/Y91S); experiment: biochemical
[5] = biological target: H-2 D^d (Mus musculus, UniProt P01900)
[6] = biological target: HLA A*6802 (Homo sapiens, UniProt P04439, A269V/D140Y/D185E/E176V/E277Q/E87N/F33Y/G231S/I121R/I166T/I218V/L180W/L300P/L318F/N151K/P208A/P217A/Q86R/R138H/R169H/S129P/T345S/V36M)
[7] = biological target: H-2 K^d (Mus musculus, UniProt P01902)
[8] = biological target: HLA B*1503 (Homo sapiens, UniProt P01889, A329T/A93T/A95T/C349S/D201E/D98Y/E187L/E204Q/K202T/N87E/Q94N/R155S/R180L/S121R/S35A/V306I/V36M/Y140S/Y91S); experiment: biochemical
[9] = biological target: HLA B*3501 (Homo sapiens, UniProt P01889, A329T/A93T/A95T/C349S/D201E/D98Y/E176V/E187L/E204Q/E69T/I218V/K202T/L119I/Q94N/R155S/R180L/S121R/S35A/S48A/T118I/V127L/V306I/V36M/Y140S/Y91F)
[10] = biological target: HLA B*5802 (Homo sapiens, UniProt P01889, A329T/C349S/D201E/D98Y/E176V/E187L/E204Q/E69T/G107R/I218V/I90N/K202T/L105A/N104I/N87E/Q89R/Q94S/R106L/R155S/R180L/R86G/S101N/S121W/S35A/S48A/V127L/V306I/V36M/Y140S/Y91M)
[11] = biological target: HLA B*5101 (Homo sapiens, UniProt P01889, A329T/A93T/A95T/C349S/D138N/D201E/D98Y/E187L/E204Q/E69T/G107R/I218V/K202T/L105A/L119W/N104I/Q94N/R106L/R155S/R180L/S101N/S121T/S35A/S48A/V306I/V36M/Y195H/Y91F)
[12] = biological target: HLA B*5801 (Homo sapiens, UniProt P01889, A329T/C349S/D201E/D98Y/E176V/E187L/E204Q/E69T/G107R/I218V/I90N/K202T/L105A/L119I/N104I/N87E/Q89R/Q94S/R106L/R155S/R180L/R86G/S101N/S121R/S35A/S48A/T118I/V127L/V306I/V36M/Y140S/Y91M)
[13] = biological target: HLA A*3001 (Homo sapiens, UniProt P04439, D140H/D185E/E176W/F33S/G80R/H175R/K168Q/R138E/R41S); experiment: biochemical
[14] = biological target: HLA B*5301 (Homo sapiens, UniProt P01889, A329T/A93T/A95T/C349S/D201E/D98Y/E176V/E187L/E204Q/E69T/G107R/I218V/K202T/L105A/L119I/N104I/Q94N/R106L/R155S/R180L/S101N/S121R/S35A/S48A/T118I/V127L/V306I/V36M/Y140S/Y91F)
[15] = biological target: HLA B*5401 (Homo sapiens, UniProt P01889, A329T/C349S/D138N/D201E/E176V/E187T/E204Q/E69G/I76V/K202T/L119W/R155S/R180L/S121T/S35A/S48A/V127L/V306I/V36M/Y140L)
[16] = biological target: H-2 K^k (Mus musculus, UniProt P04223)
Sequence of H-2 K^k (P01887 21-119): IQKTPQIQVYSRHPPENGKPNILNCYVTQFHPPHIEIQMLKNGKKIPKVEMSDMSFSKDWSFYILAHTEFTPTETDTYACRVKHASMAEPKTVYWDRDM
Sequence of H-2 K^k (P04223 22-369): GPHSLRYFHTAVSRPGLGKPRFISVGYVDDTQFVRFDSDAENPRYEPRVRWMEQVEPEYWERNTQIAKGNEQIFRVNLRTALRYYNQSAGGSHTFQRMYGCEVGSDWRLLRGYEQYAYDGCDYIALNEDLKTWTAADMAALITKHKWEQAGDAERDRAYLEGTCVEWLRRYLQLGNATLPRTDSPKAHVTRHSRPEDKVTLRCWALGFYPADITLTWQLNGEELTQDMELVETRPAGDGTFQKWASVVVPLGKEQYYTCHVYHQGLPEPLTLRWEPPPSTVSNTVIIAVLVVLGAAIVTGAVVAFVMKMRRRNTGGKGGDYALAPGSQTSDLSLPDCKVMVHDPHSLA

Sequence of H-2 D^d (P01900 whole entry, looked up): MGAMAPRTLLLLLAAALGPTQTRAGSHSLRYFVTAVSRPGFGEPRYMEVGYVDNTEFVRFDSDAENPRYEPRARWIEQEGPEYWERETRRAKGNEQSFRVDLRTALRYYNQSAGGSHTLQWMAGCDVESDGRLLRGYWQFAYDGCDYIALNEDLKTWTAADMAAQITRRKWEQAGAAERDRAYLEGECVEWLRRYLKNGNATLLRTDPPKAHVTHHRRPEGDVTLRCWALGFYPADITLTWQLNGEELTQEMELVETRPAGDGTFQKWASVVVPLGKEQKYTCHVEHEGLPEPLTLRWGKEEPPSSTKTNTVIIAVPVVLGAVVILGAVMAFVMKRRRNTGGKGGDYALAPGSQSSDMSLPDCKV
Sequence of H-2 D^b (P01887 21-119): as the sequence (P01887 21-119) above
Sequence of H-2 D^b (P01899 25-362): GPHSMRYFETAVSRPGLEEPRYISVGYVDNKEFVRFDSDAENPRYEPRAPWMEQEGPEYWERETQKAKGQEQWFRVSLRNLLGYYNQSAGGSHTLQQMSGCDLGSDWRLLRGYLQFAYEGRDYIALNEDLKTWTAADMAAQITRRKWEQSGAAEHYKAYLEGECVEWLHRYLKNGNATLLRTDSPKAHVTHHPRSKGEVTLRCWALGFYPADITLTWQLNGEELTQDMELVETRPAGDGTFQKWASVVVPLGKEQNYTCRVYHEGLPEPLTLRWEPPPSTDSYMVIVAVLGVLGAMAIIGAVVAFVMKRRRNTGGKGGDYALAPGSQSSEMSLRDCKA
Sequence of H-2 K^d (P01887 21-119): as the sequence (P01887 21-119) above
Sequence of H-2 K^d (P01902 22-368): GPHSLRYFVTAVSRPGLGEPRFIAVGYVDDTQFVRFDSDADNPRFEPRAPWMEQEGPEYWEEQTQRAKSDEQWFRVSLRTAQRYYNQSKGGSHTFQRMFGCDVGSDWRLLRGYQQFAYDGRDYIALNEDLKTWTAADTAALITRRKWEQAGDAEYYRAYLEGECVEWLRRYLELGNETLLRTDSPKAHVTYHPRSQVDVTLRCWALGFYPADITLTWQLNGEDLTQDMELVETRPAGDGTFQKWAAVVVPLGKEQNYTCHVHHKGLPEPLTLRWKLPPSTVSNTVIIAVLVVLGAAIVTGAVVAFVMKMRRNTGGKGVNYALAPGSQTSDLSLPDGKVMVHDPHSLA

In the case of XXXXXXXCX [3064.0142], the “Normalized average relative binding affinity(ARB)” value [1] is reported as 0.11, the “Normalized average relative binding affinity(ARB)” value [2] is reported as 0.12 and the “Normalized average relative binding affinity(ARB)” value [3] is reported as 0.22. The “Normalized average relative binding affinity(ARB)” value [4] was 0.18, the “Normalized average relative binding affinity(ARB)” value [5] was 0.78 and the “Normalized average relative binding affinity(ARB)” value [6] was 0.19. For the same sequence, the “Normalized average relative binding affinity(ARB)” value [7] was 0.28, the “Normalized average relative binding affinity(ARB)” value [8] was 0.11 and the “Normalized average relative binding affinity(ARB)” value [9] was 0.087. For the same sequence, the “Normalized average relative binding affinity(ARB)” value [10] was 0.21, the “Normalized average relative binding affinity(ARB)” value [11] was 0.38 and the “Normalized average relative binding affinity(ARB)” value [12] was 0.18. For the same sequence, the “Normalized average relative binding affinity(ARB)” value [13] was 0.11, the “Normalized average relative binding affinity(ARB)” value [14] was 0.078 and the “Normalized average relative binding affinity(ARB)” value [15] was 0.74. For the same sequence, the “Normalized average relative binding affinity(ARB)” value [16] was 0.37.
For XXXXXXXDX [3064.0143], the “Normalized average relative binding affinity(ARB)” value [1] was 0.10, the “Normalized average relative binding affinity(ARB)” value [2] was 0.090 and the “Normalized average relative binding affinity(ARB)” value [3] was 0.17. The “Normalized average relative binding affinity(ARB)” value [4] was 0.049, the “Normalized average relative binding affinity(ARB)” value [5] was 0.44 and the “Normalized average relative binding affinity(ARB)” value [6] was 0.093. The “Normalized average relative binding affinity(ARB)” value [7] was 0.62, the “Normalized average relative binding affinity(ARB)” value [8] was 0.14 and the “Normalized average relative binding affinity(ARB)” value [9] was 0.073. The “Normalized average relative binding affinity(ARB)” value [10] was 0.087, the “Normalized average relative binding affinity(ARB)” value [11] was 0.17 and the “Normalized average relative binding affinity(ARB)” value [12] was 0.063. For the same sequence, the “Normalized average relative binding affinity(ARB)” value [13] was 0.052, the “Normalized average relative binding affinity(ARB)” value [14] was 0.082 and the “Normalized average relative binding affinity(ARB)” value [15] was 0.038. The “Normalized average relative binding affinity(ARB)” value [16] was 0.26.
In the case of XXXXXXXEX [3064.0144], the “Normalized average relative binding affinity(ARB)” value [1] is reported as 0.27, the “Normalized average relative binding affinity(ARB)” value [2] is reported as 0.33 and the “Normalized average relative binding affinity(ARB)” value [3] is reported as 0.24. For the same sequence, the “Normalized average relative binding affinity(ARB)” value [4] was 0.23, the “Normalized average relative binding affinity(ARB)” value [5] was 0.65 and the “Normalized average relative binding affinity(ARB)” value [6] was 0.14. The “Normalized average relative binding affinity(ARB)” value [7] was 0.55, the “Normalized average relative binding affinity(ARB)” value [8] was 0.11 and the “Normalized average relative binding affinity(ARB)” value [9] was 0.098. The “Normalized average relative binding affinity(ARB)” value [10] was 0.30, the “Normalized average relative binding affinity(ARB)” value [11] was 0.34 and the “Normalized average relative binding affinity(ARB)” value [12] was 0.18. The “Normalized average relative binding affinity(ARB)” value [13] was 0.12, the “Normalized average relative binding affinity(ARB)” value [14] was 0.10 and the “Normalized average relative binding affinity(ARB)” value [15] was 0.13. The “Normalized average relative binding affinity(ARB)” value [16] was 0.46.
In the case of XXXXXXXFX [3064.0145], the “Normalized average relative binding affinity(ARB)” value [1] is reported as 0.24, the “Normalized average relative binding affinity(ARB)” value [2] is reported as 0.79 and the “Normalized average relative binding affinity(ARB)” value [3] is reported as 0.32. For the same sequence, the “Normalized average relative binding affinity(ARB)” value [4] was 0.32, the “Normalized average relative binding affinity(ARB)” value [5] was 0.75 and the “Normalized average relative binding affinity(ARB)” value [6] was 0.31. The “Normalized average relative binding affinity(ARB)” value [7] was 0.66, the “Normalized average relative binding affinity(ARB)” value [8] was 0.21 and the “Normalized average relative binding affinity(ARB)” value [9] was 0.13. For the same sequence, the “Normalized average relative binding affinity(ARB)” value [10] was 0.33, the “Normalized average relative binding affinity(ARB)” value [11] was 1.0 and the “Normalized average relative binding affinity(ARB)” value [12] was 1.0. For the same sequence, the “Normalized average relative binding affinity(ARB)” value [13] was 0.76, the “Normalized average relative binding affinity(ARB)” value [14] was 0.46 and the “Normalized average relative binding affinity(ARB)” value [15] was 0.080. The “Normalized average relative binding affinity(ARB)” value [16] was 1.0.
XXXXXXXGX [3064.0146] was tested, and the “Normalized average relative binding affinity(ARB)” value [1] was 0.54, the “Normalized average relative binding affinity(ARB)” value [2] was 0.043 and the “Normalized average relative binding affinity(ARB)” value [3] was 0.099. The “Normalized average relative binding affinity(ARB)” value [4] was 0.15, the “Normalized average relative binding affinity(ARB)” value [5] was 0.62 and the “Normalized average relative binding affinity(ARB)” value [6] was 0.31. For the same sequence, the “Normalized average relative binding affinity(ARB)” value [7] was 0.63, the “Normalized average relative binding affinity(ARB)” value [8] was 0.18 and the “Normalized average relative binding affinity(ARB)” value [9] was 0.098. For the same sequence, the “Normalized average relative binding affinity(ARB)” value [10] was 0.87, the “Normalized average relative binding affinity(ARB)” value [11] was 0.20 and the “Normalized average relative binding affinity(ARB)” value [12] was 0.21. The “Normalized average relative binding affinity(ARB)” value [13] was 0.18, the “Normalized average relative binding affinity(ARB)” value [14] was 0.094 and the “Normalized average relative binding affinity(ARB)” value [15] was 0.083. The “Normalized average relative binding affinity(ARB)” value [16] was 0.32.
